From patent US11524993B2 (priority 2015, dated 2022)

How the values were obtained:
[1] = test system: A/WSN/33 H1 virus; parameters: species or system mice; conditions: mouse, in vivo
[2] = test system: B/FLA/06 yamagata lineage virus; parameters: species or system mice; conditions: mouse, in vivo

## CCOC(=O)C1=C[C@@H](OC(CC)CC)[C@H](NC(C)=O)[C@@H](N)C1 [oseltamivir]
[1]
  oxygen saturation level (pulse oximetry) Day 6, A/WSN/33: reduced oxygen saturation at similar levels as those treated with an irrelevant control mAb
  protection (survival), influenza A infection model: no protection
[2]
  oxygen saturation level (pulse oximetry) Day 6, B/FLA/06, avg.: 86%
  survival rates, influenza B infection: 90-100%
